The test system of test [1] is RF strain of HIV (CEM-SS cells). The test can be described thus: Cell Culture Anti-HIV Activity (cell viability, formazan). In kind it is cell-based. The conditions noted are these: Human immunodeficiency virus 1, CEM-SS, 144 h, CEM-SS cells, RF strain of HIV, multiplicity of infection 0.04, 6 days at 37° C., 450 nm; read-out: HIV (CEM Cells) IC50. The method, boiled down: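 CEM-SS cells (5000/well) infected with HIV RF at MOI 0.04, exposed to half-log serial compound dilutions, incubated 6 days at 37° C. Viability read by tetrazolium reduction to formazan, absorbance 450 nm. IC50 is the concentration raising formazan in infected cells to 50% of uninfected, drug-free cells.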

The next test addresses T1, HIV protease (Human immunodeficiency virus type 1 group M subtype B, UniProt P04585).
T1 construct: and purified protease
In words: HIV Protease Assay. The conditions noted are these: for HIV Protease % Inhibition at 10 μM: 10 μM inhibitor. Type of test: biochemical. The method, boiled down:
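Purified protease cleaved 450 μM octapeptide substrate in 50 mM sodium acetate pH 5.5 with 100 μg/ml BSA for 30 minutes at 37° C; product analyzed by reverse-phase HPLC at UV220 after H3PO4 quench. Inhibitors tested at final 10 μM with 4% DMSO.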

The mark [2] stands for this setting: pH 5.5, 10 μM inhibitor, 4% DMSO, 450 μM substrate, pH 5.5, 30 minutes at 37° C., RP-HPLC, read-out: HIV Protease % Inhibition at 10 μM.
Setting [3] is: 4% DMSO, 450 μM substrate, pH 5.5, 30 minutes at 37° C., RP-HPLC.

Where two headings read alike, the source gives them in different places. Bounds are passed on as bounds.

The results in this text go back to patent publication US5760036A, “Aminediol protease inhibitors” (E. R. Squibb & Sons, Inc., priority 1995, dated 1998).

`CC(C)[C@H](NC(=O)OCc1ccccc1)C(=O)N[C@@H](Cc1ccccc1)[C@H](O)CNC[C@@H](O)[C@H](Cc1ccccc1)N(C)C(=O)OC(C)(C)C` [Compound 141, [S-[1R*,2S*(2S*,3R*)]-N-[3-[[3-[[(1,1-Dimethylethoxy)carbonyl]methylamino]-2-hydroxy-4-phenylbutyl]amino]-2-hydroxy-1-(phenylmethyl)propyl]-N^2-[(phenylmethoxy)-carbonyl]-L-valinamide]]: the IC50 in test [1] was over 2300 nM. For the same compound, the inhibition at 10 µM at HIV protease (setting [2]) was determined as 77%.
Take `CC(C)(C)OC(=O)N[C@@H](Cc1ccccc1)[C@H](O)CNC[C@@H](O)[C@H](Cc1ccccc1)NC(=O)C(O)(CO)C(C)(C)C` (single isomer, unassigned; isomer a) [Compound 366, [1S-[1R*,2S*(2S*,3R*)]]-[3-[[3-[[2-Hydroxy-2-(hydroxymethyl)-3.3-dimethyl-1-oxobutyl]amino]-2-hydroxy-4-phenylbutyl]amino]-2-hydroxy-1-(phenylmethyl)propyl]carbamic acid. 1.1-dimethylethyl ester, isomer A]: the IC50 in test [1] stood at 9 nM. The “HIV Protease % Inhibition at 10 μM” value on HIV protease (setting [3]) is on record as 99%.
Consider `CC(C)(C)OC(=O)N[C@@H](Cc1ccccc1)[C@H](O)CNC[C@@H](O)[C@H](Cc1ccccc1)NC(=O)C1NC(=O)OC1(C)C` (single isomer, unassigned; isomer b) [Compound 240, [1S-[1R*,2S*(2S*,3R*)]]-[3-[[3-[[(5,5-Dimethyl-2-oxo-4-oxazolidinyl)carbonyl]amino]-2-hydroxy-4-phenylbutyl]amino]-2-hydroxy-1-(phenylmethyl)propyl]carbamic acid, 1,1-dimethylethyl ester, isomer B], for which, in test [1], the IC50 turned out to be 2000 nM. The “HIV Protease % Inhibition at 10 μM” value at HIV protease (setting [3]) is 99%.
With `COCC(C)(C)OC(=O)N[C@@H](Cc1ccccc1)[C@H](O)CNC[C@@H](O)[C@H](Cc1ccccc1)NC(=O)OC(C)(C)C` [Compound 168, [R-(R*,S*)]-[Iminobis[2-hydroxy-1-(phenylmethyl)-3,1-propanediyl)biscarbamic acid, 1,1-dimethylethyl 2-methoxy-1,1-dimethylethyl ester], the IC50 in test [1] worked out at 1400 nM. Also, on HIV protease (setting [2]), the inhibition at 10 µM came to 61%.
In the case of `COc1ccccc1C[C@H](NC(=O)OC(C)(C)C)[C@H](O)CNC[C@@H](O)[C@H](Cc1ccccc1)NC(=O)OC(C)(C)C` [Compound 349, [1S-[1R*,2S*(2S*,3R*)]]-[3-[[3-1,1-Dimethylethoxy)-carbonyl]amino]-2-hydroxy-4-(2-methoxyphenyl)butyl]-amino]-2-hydroxy-1-(phenylmethyl)propyl]carbamic acid, 1,1-dimethylethyl ester], the IC50 in test [1] is 370 nM. Besides, the inhibition at 10 µM at HIV protease (setting [2]) stood at 98%.
As to `CC(C)(C)OC(=O)N[C@@H](Cc1ccccc1)[C@H](O)CNC[C@@H](O)[C@H](Cc1ccccc1)NC(=O)SC(C)(C)C` [Compound 184, [1S-[1R*,2S*(2S*,3R*)]]-[3-[[3-[[[(1 1-Dimethylethyl)thio)carbonyl]amino]-2-hydroxy-4-phenylbutyl]amino]-2-hydroxy-1-(phenylmethyl)-propyl]carbamic acid, 1,1-dimethylethyl ester], in test [1], the IC50 was determined as 1300 nM. For the same compound, the inhibition at 10 µM at HIV protease (setting [2]) worked out at 99%.
In the case of `CC(C)(C)OC(=O)N[C@@H](Cc1ccccc1)[C@H](O)CNC[C@@H](O)[C@H](Cc1ccc(OCC(=O)N2CCCCC2)cc1)NC(=O)OC(C)(C)C` [Compound 332], the IC50 in test [1] came to 70 nM. On HIV protease (pH 5.5, read-out: HIV Protease % Inhibition at 10 μM), the inhibition at 10 µM stood at 100%.
`COCCCCOc1ccc(C[C@H](NC(=O)OC(C)(C)C)[C@H](O)CNC[C@@H](O)[C@H](Cc2ccccc2)NC(=O)OC(C)(C)C)cc1` [Compound 300, [1S-[1R*,2S*(2S*,3R*)]]-[3-[[3-[[(1,1-Dimethylethoxy)-carbonyl]amino]-2-hydroxy-4-[4-(4-methoxybutoxy)phenyl]butyl]amino]-2-hydroxy-1-(phenylmethyl)propyl]carbamic acid, 1,1-dimethylethyl ester]: in test [1], the concentration for half-maximal inhibition (IC50) turned out to be 30 nM. For the same compound, the inhibition at 10 µM on HIV protease (setting [2]) was found to be 99%.

The IC50 is the point on the concentration scale where inhibition reaches its midpoint. The term inhibition denotes the drop in the measured response relative to a control, in per cent.
